# Experimental data published in ChEMBL document CHEMBL1136035, “New Rev-transport inhibitor with anti-HIV activity from Valerianae Radix” (2002).
# Tested on: MT4
# Assay: Antiviral activity was determined by measurement of HIV-p24 antigen production in the supernatants of the infected MT-4 cell cultures with acommercially available HIV-antigen kit.
# Format: functional, Homo sapiens
compound,measurement,value
CC(=O)OCC1=CO[C@@H](OC(=O)CC(C)C)[C@H]2C1=C[C@H](OC(=O)CC(C)C)[C@]21CO1 [VALTRATE],Inhibition,44%
